The values below come from the NIST ThermoML archive (doi:10.1016/j.jct.2008.09.021).

In general, refractive index refers to a measure of how strongly the sample bends light. As usually defined, the mass density is the mass of a sample divided by its volume. As usually defined, the vapor or sublimation pressure is the equilibrium pressure above the liquid or solid.

The nature of series [1]: refractive index (Na D-line) (dimensionless). The following applies: 298.15 K; 101.33 kPa; Liquid; Standard Abbe refractometry.
For series [2] the following is noted: Liquid; for mass density: 303.15 K, 101.33 kPa, Pycnometric method; for vapor or sublimation pressure: Ebulliometric method (Recirculating still).

± gives the expanded uncertainty stated by the source.

`CC(C)CCO` [3-methylbutan-1-ol]: in series [1], the refractive index is listed as 1.4053 ± 0.0013. Besides, the mass density in series [2] was 801.76 ± 4.7 kg/m3. The “vapor or sublimation pressure” value in series [2] (401.85 K) was 95.3 ± 2 kPa.

As to `CCC(C)O` (stereo not drawn) [butan-2-ol], the refractive index in series [1] is listed as 1.3954 ± 0.0013. In addition, the mass density in series [2] was found to be 798.92 ± 4.7 kg/m3. Besides, the “vapor or sublimation pressure” value in series [2] (371.05 K) was determined as 95.3 ± 2 kPa.

For the molecule `CC(C)O` [propan-2-ol], the refractive index in series [1] was 1.375 ± 0.0013. In series [2], the mass density was 776.88 ± 4.4 kg/m3. Besides, the “vapor or sublimation pressure” value in series [2] (353.85 K) came out at 95.3 ± 2 kPa.

`CC(C)CO` [2-methyl-1-propanol]: the refractive index in series [1] was found to be 1.3939 ± 0.0013. The mass density in series [2] is reported as 794.34 ± 4.6 kg/m3. Besides, the “vapor or sublimation pressure” value in series [2] (379.35 K) is 95.3 ± 2 kPa.

As for `CN1CCCC1=O` [N-methylpyrrolidone], the refractive index in series [1] came to 1.4674 ± 0.0008. For the same molecule, the mass density in series [2] is 1023.4 ± 0.61 kg/m3. In series [2] (473.25 K), the “vapor or sublimation pressure” value is given as 95.3 ± 1.9 kPa.

In the case of `CC(C)(C)O` [2-methylpropan-2-ol], the refractive index in series [1] was 1.3851 ± 0.0013. For the same molecule, in series [2], the mass density is 776.16 ± 4.4 kg/m3. In series [2] (353.95 K), the “vapor or sublimation pressure” value came out at 95.3 ± 2 kPa.
